Results reported in publication PMC7774954, “Interactomic affinity profiling by holdup assay: Acetylation and distal residues impact the PDZome-binding specificity of PTEN phosphatase” (PLoS ONE, 2020).
*1 amine or outer side, *2 acyl side, *3 side chain or, on linkers, in order; H or OH if unused. Where a SMILES comes first, the peptide text is derived from it. The star is where a group is joined. X1 = O=C(CCCC[C@@H]1SC[C@@H]2NC(=O)N[C@@H]21)NCCCOCCOCCOCCCN*; Suc = O=C(CCC(=O)[*:2])[*:1]

Legend:
GRIP2-4 = test: Holdup assay, GRIP2-4; assay type: binding, human
IL16-1 = test: Holdup assay, IL16-1; assay type: binding, human
FRMPD2-1 = test: Holdup assay, FRMPD2-1; assay type: binding, human
DLG5-3 = test: Holdup assay, DLG5-3; assay type: binding, human
HTRA2-1 = test: Holdup assay, HTRA2-1; assay type: binding, human
DLG2-2 = DLG2-2 (Homo sapiens, UniProt Q15700); test: Holdup assay, DLG2-2; assay type: binding
MAGI2-5 = MAGI2-5 (Homo sapiens, UniProt Q86UL8); test: Holdup assay, MAGI2-5; assay type: binding
GRIP2-5 = test: Holdup assay, GRIP2-5; assay type: binding, human
MAGI2 PDZ 3 = target: T1, MAGI2 PDZ 3 (Homo sapiens, UniProt Q86UL8); test: Holdup assay, MAGI2-3; assay type: binding; settings: for BI: MAGI2-3
T1 construct: made in house; host or cells: E. coli
Experimental: (§1) The holdup assay was performed on a Tecan freedom Evo200 robot with 384-well plates in singlicate for the three 11-mer PTEN variants and the 13-mer PTEN peptide as described in [31, 32]. Briefly, prior to interaction assay, 2.5 μL of streptavidin resin was saturated in each well with 20 μL of biotinylated PBM peptides (42 μM) and then washed twice with an excess of free biotin, while the reference resin was incubated only with biotin. Right before the holdup experiment, the PDZ library was spiked with an internal standard of lysozyme. Then, the biotin- or PBM-saturated resin was incubated, each in a distinct well of a 384-well plate, with complete cell lysates diluted so that the concentration of the tag-PDZ present in the crude extract is adjusted at 4 μM. After a sufficient time to reach complex equilibrium (15 min.), a fast and mild filtration step is performed and the tag-PDZ concentrations were measured by capillary electrophoresis instrument (LabChip GXII, PerkinElmer, Massachusets, USA). Standard markers were used to convert migration time into molecular weight on the LabChip software and inappropriate molecular weight markers were corrected or excluded.
(§2) For filtered data, the BI was extracted with the following equation (Eq 1) that estimates the depleted fraction after superimposition of the sample and reference electropherograms: BI=Iref−Ilig/Iref (1) where Iref and Ilig are the intensities of the tag-PDZ peaks measured, for each PDZ domain/PBM peptide interaction pair, in the biotin reference and the PBM electropherograms, respectively.
(§3) BIs were transformed into dissociation constants (KD) using the following formula: KD=([PDZtot]−BI·[PDZtot])·([PBMtot]−BI·[PDZtot])/BI·[PDZtot] (2) where [PDZtot] and [PBMtot] correspond to the total concentrations of the PDZ domain (usually around 4 μM) and the PBM peptide used during the assay. Since the PBMtot concentration in the resin during the holdup assay parameter may differ from one peptide to another and remains unknown, it is impossible to directly convert BI values into KD constants. We systematically determined the KD constants for a subset of PDZ/PBM pairs by competitive FP. […] For each PBM, the average peptide concentration was calculated after outlier rejection based on the absolute distances from the median as compared to three times the standard deviation (3σ rule), with never more than 2 values rejected.

APBA3-1 = test: Holdup assay, APBA3-1; assay type: binding, human
HTRA1-1 = target: T2, HTRA1-1 (Homo sapiens, UniProt Q92743); test: Holdup assay, HTRA1-1; assay type: binding
T2 construct: His-MBP or His-TRX (N); made in house; host or cells: E. coli
Experimental: as §1, §2

NHERF1 PDZ 1 = target: T3, NHERF1 PDZ 1 (Homo sapiens, UniProt O14745); test: Holdup assay, NHERF1-1; assay type: binding; settings: for BI: PDZ domain NHERF1-1
T3 construct: NHERF1-1 as the first PDZ domain of the NHERF1 protein; made in house; host or cells: E. coli
T3 sequence (O14745 14-94 limits assumed): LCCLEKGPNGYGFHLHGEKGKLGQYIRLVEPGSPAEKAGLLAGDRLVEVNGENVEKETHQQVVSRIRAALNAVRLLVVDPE
Experimental: as §1, §2, §3

IL16-2 = test: Holdup assay, IL16-2; assay type: binding, human
DLG1-3 = test: Holdup assay, DLG1-3; assay type: binding, human
DVL3-1 = test: Holdup assay, DVL3-1; assay type: binding, human
NHERF2 PDZ 2 = target: T4, NHERF2 PDZ 2 (Homo sapiens, UniProt Q15599); test: Holdup assay, NHERF2-2; assay type: binding; settings: for BI: PDZ domain NHERF2-2 (gene MPDZ, 9)
T4 construct: made in house; host or cells: E. coli
Experimental: as §1, §2, §3

LIN7B-1 = test: Holdup assay, LIN7B-1; assay type: binding, human
GRIP2-1 = test: Holdup assay, GRIP2-1; assay type: binding, human
PARD3 PDZ 3 = target: T5, PARD3 PDZ 3 (Homo sapiens, UniProt Q8TEW0); test: Holdup assay, PARD3-3; assay type: binding; settings: for KD (affinity measured by holdup): PARD3 PDZ 3, singlicate, BI converted to KD, tag-PDZ 4 μM, 15 min, nd: not detected in the holdup assay; for BI: PDZ domain PARD3-3
T5 construct: made in house; host or cells: E. coli
Experimental: as §1, §2, §3

INADL-8 = INADL-8 (Homo sapiens, UniProt Q8NI35); test: Holdup assay, INADL-8; assay type: binding
DLG1 PDZ 2 = target: T6, DLG1 PDZ 2 (Homo sapiens, UniProt Q12959); test: Holdup assay, DLG1-2; assay type: binding; settings: for BI: DLG1-2
T6 construct: made in house; host or cells: E. coli
Experimental: as §1, §2, §3

MPDZ-1 = test: Holdup assay, MPDZ-1; assay type: binding, human
MLLT4-1 = test: Holdup assay, MLLT4-1; assay type: binding, human
FRMPD1-1 = test: Holdup assay, FRMPD1-1; assay type: binding, human
GRIP2-3 = test: Holdup assay, GRIP2-3; assay type: binding, human
LNX2-4 = test: Holdup assay, LNX2-4; assay type: binding, human

T6 sequence (Q12959 319-405 limits assumed): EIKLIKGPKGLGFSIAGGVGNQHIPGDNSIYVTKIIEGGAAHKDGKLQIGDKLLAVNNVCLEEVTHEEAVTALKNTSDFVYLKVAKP
T1 sequence (Q86UL8 605-683 limits assumed): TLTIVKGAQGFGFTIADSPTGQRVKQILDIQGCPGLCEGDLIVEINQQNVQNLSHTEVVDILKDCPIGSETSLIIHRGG
Chain of INADL-8 (Q8NI35 whole entry): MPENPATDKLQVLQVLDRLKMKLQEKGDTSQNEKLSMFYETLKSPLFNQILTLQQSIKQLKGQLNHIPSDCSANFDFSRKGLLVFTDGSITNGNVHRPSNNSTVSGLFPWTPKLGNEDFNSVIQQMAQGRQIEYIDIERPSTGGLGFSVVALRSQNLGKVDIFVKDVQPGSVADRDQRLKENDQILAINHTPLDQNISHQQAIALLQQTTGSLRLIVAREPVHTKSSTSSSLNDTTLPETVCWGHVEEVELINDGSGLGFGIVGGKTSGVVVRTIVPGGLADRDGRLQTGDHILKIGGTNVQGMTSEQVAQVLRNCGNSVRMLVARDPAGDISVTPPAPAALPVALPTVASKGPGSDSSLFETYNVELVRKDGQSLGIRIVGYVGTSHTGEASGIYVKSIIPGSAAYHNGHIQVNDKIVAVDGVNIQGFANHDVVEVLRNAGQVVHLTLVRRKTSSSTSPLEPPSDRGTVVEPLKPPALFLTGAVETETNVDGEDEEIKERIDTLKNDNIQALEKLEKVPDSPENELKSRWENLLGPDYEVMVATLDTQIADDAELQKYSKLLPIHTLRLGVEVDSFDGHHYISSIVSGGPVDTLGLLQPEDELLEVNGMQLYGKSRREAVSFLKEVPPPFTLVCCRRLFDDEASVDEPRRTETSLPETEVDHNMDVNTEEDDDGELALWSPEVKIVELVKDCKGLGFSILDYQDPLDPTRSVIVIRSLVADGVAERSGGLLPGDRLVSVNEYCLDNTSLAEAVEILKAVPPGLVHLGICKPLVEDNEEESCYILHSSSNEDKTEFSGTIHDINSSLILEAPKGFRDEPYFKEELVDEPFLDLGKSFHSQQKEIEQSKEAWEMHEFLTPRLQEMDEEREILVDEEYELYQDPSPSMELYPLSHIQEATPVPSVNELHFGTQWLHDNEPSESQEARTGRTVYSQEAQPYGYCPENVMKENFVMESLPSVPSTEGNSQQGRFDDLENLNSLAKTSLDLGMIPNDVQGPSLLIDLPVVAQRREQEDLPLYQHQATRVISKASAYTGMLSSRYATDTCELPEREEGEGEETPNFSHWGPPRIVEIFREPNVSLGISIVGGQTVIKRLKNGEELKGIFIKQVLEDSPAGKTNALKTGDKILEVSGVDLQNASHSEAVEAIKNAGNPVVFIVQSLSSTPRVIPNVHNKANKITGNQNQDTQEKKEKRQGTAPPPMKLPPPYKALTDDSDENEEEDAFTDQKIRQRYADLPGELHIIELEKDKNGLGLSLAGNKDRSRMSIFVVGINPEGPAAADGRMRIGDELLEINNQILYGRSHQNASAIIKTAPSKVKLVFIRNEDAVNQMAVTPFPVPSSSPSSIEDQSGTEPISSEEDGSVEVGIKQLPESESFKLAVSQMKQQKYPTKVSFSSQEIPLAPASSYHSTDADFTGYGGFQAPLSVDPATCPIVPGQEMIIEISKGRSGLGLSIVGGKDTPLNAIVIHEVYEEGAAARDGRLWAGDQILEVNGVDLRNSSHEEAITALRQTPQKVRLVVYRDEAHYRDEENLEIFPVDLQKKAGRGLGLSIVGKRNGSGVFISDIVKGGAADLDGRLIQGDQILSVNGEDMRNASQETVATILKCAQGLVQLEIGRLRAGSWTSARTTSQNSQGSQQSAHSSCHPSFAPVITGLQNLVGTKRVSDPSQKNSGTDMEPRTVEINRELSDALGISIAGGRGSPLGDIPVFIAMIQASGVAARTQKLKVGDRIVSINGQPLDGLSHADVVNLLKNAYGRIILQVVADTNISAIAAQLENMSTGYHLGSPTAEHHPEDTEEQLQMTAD
T2 sequence (Q92743 365-467 limits assumed): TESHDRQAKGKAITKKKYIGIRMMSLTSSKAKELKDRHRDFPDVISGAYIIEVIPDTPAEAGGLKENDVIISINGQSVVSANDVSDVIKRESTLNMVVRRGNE
T5 sequence (Q8TEW0 590-677 limits assumed): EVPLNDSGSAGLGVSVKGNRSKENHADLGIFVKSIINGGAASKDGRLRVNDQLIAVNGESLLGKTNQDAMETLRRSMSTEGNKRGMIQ
Chain of MAGI2-5 (Q86UL8 whole entry): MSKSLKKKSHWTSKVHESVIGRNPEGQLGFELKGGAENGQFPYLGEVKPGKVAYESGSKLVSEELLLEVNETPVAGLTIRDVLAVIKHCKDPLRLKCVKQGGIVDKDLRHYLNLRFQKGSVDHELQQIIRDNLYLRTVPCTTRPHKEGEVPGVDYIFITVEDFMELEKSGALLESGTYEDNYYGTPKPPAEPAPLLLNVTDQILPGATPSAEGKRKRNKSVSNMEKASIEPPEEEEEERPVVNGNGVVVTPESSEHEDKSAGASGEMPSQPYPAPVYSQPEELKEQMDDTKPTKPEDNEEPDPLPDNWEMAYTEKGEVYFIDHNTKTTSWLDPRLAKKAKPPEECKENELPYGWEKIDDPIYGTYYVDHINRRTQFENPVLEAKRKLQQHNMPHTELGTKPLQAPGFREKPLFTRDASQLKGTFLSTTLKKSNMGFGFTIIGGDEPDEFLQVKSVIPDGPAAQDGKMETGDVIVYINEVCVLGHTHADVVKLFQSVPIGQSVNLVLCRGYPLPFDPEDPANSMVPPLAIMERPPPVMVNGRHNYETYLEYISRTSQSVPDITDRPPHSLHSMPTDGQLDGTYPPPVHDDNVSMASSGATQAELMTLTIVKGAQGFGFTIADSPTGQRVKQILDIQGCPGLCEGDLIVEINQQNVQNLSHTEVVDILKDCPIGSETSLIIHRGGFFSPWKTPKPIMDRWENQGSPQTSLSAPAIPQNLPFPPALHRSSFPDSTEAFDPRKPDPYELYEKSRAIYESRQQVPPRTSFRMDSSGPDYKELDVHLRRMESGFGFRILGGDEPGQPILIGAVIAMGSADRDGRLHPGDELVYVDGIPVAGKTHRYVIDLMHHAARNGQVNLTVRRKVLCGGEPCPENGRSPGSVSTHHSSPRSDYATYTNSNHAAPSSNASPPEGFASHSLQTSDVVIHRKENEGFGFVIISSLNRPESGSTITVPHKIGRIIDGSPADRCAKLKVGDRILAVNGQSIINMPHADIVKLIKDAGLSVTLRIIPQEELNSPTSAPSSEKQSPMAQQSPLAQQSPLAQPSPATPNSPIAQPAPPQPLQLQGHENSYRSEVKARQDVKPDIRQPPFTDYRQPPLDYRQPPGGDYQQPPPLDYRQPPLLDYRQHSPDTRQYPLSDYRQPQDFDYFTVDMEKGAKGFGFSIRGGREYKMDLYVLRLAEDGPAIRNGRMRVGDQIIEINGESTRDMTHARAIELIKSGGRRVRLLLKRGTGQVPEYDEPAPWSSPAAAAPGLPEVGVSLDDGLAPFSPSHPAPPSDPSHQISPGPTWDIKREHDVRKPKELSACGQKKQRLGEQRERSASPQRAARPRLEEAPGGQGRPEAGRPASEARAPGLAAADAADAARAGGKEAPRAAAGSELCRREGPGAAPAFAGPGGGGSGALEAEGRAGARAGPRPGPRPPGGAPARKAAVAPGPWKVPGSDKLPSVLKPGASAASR
T4 sequence (Q15599 150-230 limits assumed): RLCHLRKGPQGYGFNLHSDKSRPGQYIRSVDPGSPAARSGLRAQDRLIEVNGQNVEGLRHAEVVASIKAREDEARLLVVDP
Chain of DLG2-2 (Q15700 193-280): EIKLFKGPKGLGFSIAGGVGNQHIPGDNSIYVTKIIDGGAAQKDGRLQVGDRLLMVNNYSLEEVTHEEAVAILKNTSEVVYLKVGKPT

SMILES: CC[C@H](C)[C@H](NC(=O)[C@H](CCC(N)=O)NC(=O)[C@@H](NC(=O)[C@H](Cc1c[nH]cn1)NC(=O)[C@H](CCC(N)=O)NC(=O)[C@H](CC(=O)O)NC(=O)[C@H](CCC(=O)O)NC(=O)[C@H](CC(=O)O)NC(=O)CCC(=O)NCCCOCCOCCOCCCNC(=O)CCCC[C@@H]1SC[C@@H]2NC(=O)N[C@@H]21)[C@@H](C)O)C(=O)N[C@H](C(=O)N[C@@H](CCCCN)C(=O)N[C@H](C(=O)O)C(C)C)[C@@H](C)O [PTEN_11]
- BI (GRIP2-4): -0.019
- LogKD (GRIP2-4): 3.519
- BI (IL16-1): -0.017
- LogKD (IL16-1): 3.519
- BI (FRMPD2-1): -0.044
- LogKD (FRMPD2-1): 3.519
- BI (DLG5-3): 0.034
- LogKD (DLG5-3): 3.519
- BI (HTRA2-1): 0.07
- LogKD (HTRA2-1): 3.519
- BI (DLG2-2): 0.168
- BI (MAGI2-5): 0.214
- Kd (MAGI2-5): 122 µM
- BI (GRIP2-5): 0.055
- LogKD (GRIP2-5): 3.519
- Kd (MAGI2 PDZ 3): 47.2 µM
- BI (MAGI2 PDZ 3): 0.407
- BI (APBA3-1): -0.03
- LogKD (APBA3-1): 3.519
- Kd (HTRA1-1): 47.6 µM
- BI (HTRA1-1; HTRA1-1): 0.405
- BI (binding intensity) (HTRA1-1; HTRA1-1, holdup, singlicate): 0.41
- Kd (NHERF1 PDZ 1): 32.8 µM
- BI (NHERF1 PDZ 1): 0.494
- BI (IL16-2): -0.132
- LogKD (IL16-2): 3.519
- BI (DLG1-3): 0.044
- LogKD (DLG1-3): 3.519
- BI (DVL3-1): 0.012
- LogKD (DVL3-1): 3.519
- Kd (NHERF2 PDZ 2): 35.3 µM
- BI (NHERF2 PDZ 2): 0.476
- BI (LIN7B-1): -0.046
- LogKD (LIN7B-1): 3.519
- BI (GRIP2-1): -0.003
- LogKD (GRIP2-1): 3.519
- KD (affinity measured by holdup) (PARD3 PDZ 3): 160 µM
- BI (PARD3 PDZ 3): -0.078
- BI (INADL-8): 0.388
- Kd (INADL-8): 51.2 µM
- BI (DLG1 PDZ 2): 0.09
- BI (MPDZ-1): 0.039
- LogKD (MPDZ-1): 3.519
- BI (MLLT4-1): -0.038
- LogKD (MLLT4-1): 3.519
- BI (FRMPD1-1): 0.017
- LogKD (FRMPD1-1): 3.519
- BI (GRIP2-3): 0.054
- LogKD (GRIP2-3): 3.519
- BI (LNX2-4): -0.124
- LogKD (LNX2-4): 3.519

SMILES: CC[C@H](C)[C@H](NC(=O)[C@H](CCC(N)=O)NC(=O)[C@@H](NC(=O)[C@H](Cc1c[nH]cn1)NC(=O)[C@H](CCC(N)=O)NC(=O)[C@H](CC(=O)O)NC(=O)[C@H](CCC(=O)O)NC(=O)[C@H](CC(=O)O)NC(=O)CCC(=O)NCCCOCCOCCOCCCNC(=O)CCCC[C@@H]1SC[C@@H]2NC(=O)N[C@@H]21)[C@@H](C)O)C(=O)N[C@H](C(=O)N[C@@H](CCCNC(=N)N)C(=O)N[C@H](C(=O)O)C(C)C)[C@@H](C)O [PTEN_KR] ({X1-Suc}-DEDQHTQITRV-OH)
- BI (GRIP2-4): -0.019
- LogKD (GRIP2-4): 3.655
- BI (IL16-1): 0.06
- LogKD (IL16-1): 3.655
- BI (FRMPD2-1): -0.015
- LogKD (FRMPD2-1): 3.655
- BI (DLG5-3): -0.084
- LogKD (DLG5-3): 3.655
- BI (HTRA2-1): -0.042
- LogKD (HTRA2-1): 3.655
- BI (DLG2-2): 0.312
- Kd (DLG2-2): 52.4 µM
- BI (MAGI2-5): -0.074
- LogKD (MAGI2-5): 3.655
- BI (GRIP2-5): 0.006
- LogKD (GRIP2-5): 3.655
- Kd (MAGI2 PDZ 3): 21.2 µM
- BI (MAGI2 PDZ 3): 0.52
- BI (APBA3-1): -0.056
- LogKD (APBA3-1): 3.655
- Kd (HTRA1-1): 40.4 µM
- BI (HTRA1-1; HTRA1-1): 0.368
- Kd (NHERF1 PDZ 1): 3.45 µM
- BI (NHERF1 PDZ 1): 0.862
- BI (IL16-2): -0.114
- LogKD (IL16-2): 3.655
- BI (DLG1-3): 0.077
- LogKD (DLG1-3): 3.655
- BI (DVL3-1): 0.037
- LogKD (DVL3-1): 3.655
- Kd (NHERF2 PDZ 2): 20.9 µM
- BI (NHERF2 PDZ 2): 0.523
- BI (LIN7B-1): -0.078
- LogKD (LIN7B-1): 3.655
- BI (GRIP2-1): -0.04
- LogKD (GRIP2-1): 3.655
- KD (affinity measured by holdup) (PARD3 PDZ 3): 56 µM
- BI (PARD3 PDZ 3): 0.044
- BI (INADL-8): 0.532
- Kd (INADL-8): 20.1 µM
- Kd (DLG1 PDZ 2): 70.8 µM
- BI (DLG1 PDZ 2): 0.253
- BI (MPDZ-1): -0.039
- LogKD (MPDZ-1): 3.655
- BI (MLLT4-1): 0.021
- LogKD (MLLT4-1): 3.655
- BI (FRMPD1-1): -0.047
- LogKD (FRMPD1-1): 3.655
- BI (GRIP2-3): 0.027
- LogKD (GRIP2-3): 3.655
- BI (LNX2-4): -0.045
- LogKD (LNX2-4): 3.655
